From patent US11999727B2 (Tango Therapeutics, Inc., priority 2020, dated 2024)
pIC50: −log10 of the molar value. Read-outs that look alike come from different tables or passages of the source.

Key:
PRMT5 [1] = target: T1, PRMT5 (Homo sapiens, UniProt O14744); assay: PRMT5 biochemical IC50 assay with MTA as cofactor; conditions: PRMT5, MTA as cofactor; read-out: MTA IC50
T1 construct: purchased Viva (custom protein)

PRMT5 [2] = target: T1, PRMT5; assay: PRMT5 biochemical IC50 assay with SAM as cofactor; conditions: PRMT5, SAM as cofactor; read-out: SAM IC50
PRMT5 [3] = target: T1, PRMT5; assay: PRMT5 biochemical IC50 assay with no cofactor; conditions: PRMT5, no cofactor; read-out: No Cofactor/rel IC50
Source text: Table 1 indicates IC50 values (μM) against PRMT5 for exemplary compounds in the presence of SAM as cofactor, with no cofactor, and with MTA as cofactor, respectively (columns 4-6). […] Ki values can be calculated from the IC50 values as described in the Examples section. As detailed in the Examples section, for the assay performed in the presence of SAM, IC50=Ki×1.5 (Ki=IC50/1.5).

[4] = tested on: HAP1 MTAP-intact cell line; assay: SDMA in-cell western assay, HAP1 MTAP-intact; format: cell-based; conditions: Homo sapiens, HAP1, SDMA in-cell western, HAP1 MTAP-intact; read-out: MTAP HAP1 intact IC50
Summary of the method: (§1)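 IC50 values come from SDMA signal quantified by in-cell western in two HAP1 lines, one with native MTAP levels and one lacking MTAP.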

[5] = tested on: HAP1 MTAP-deleted cell line; assay: SDMA in-cell western assay, HAP1 MTAP-deleted; format: cell-based; conditions: for pIC50: Homo sapiens, HAP1, SDMA in-cell western, HAP1 MTAP-deleted; for MTAP intact/deleted ratio: SDMA in-cell western
Summary of the method: as §1

[6] = read-out: HAP1 MTAP deleted IC50
[7] = IC50 ratio HAP1 MTAP-intact / HAP1 MTAP-deleted
[8] = read-out: HAP 1 MTAP deleted IC50
[9] = IC50 ratio HAP1 MTAP-intact vs HAP1 MTAP-deleted

T1 sequence (O14744 whole entry): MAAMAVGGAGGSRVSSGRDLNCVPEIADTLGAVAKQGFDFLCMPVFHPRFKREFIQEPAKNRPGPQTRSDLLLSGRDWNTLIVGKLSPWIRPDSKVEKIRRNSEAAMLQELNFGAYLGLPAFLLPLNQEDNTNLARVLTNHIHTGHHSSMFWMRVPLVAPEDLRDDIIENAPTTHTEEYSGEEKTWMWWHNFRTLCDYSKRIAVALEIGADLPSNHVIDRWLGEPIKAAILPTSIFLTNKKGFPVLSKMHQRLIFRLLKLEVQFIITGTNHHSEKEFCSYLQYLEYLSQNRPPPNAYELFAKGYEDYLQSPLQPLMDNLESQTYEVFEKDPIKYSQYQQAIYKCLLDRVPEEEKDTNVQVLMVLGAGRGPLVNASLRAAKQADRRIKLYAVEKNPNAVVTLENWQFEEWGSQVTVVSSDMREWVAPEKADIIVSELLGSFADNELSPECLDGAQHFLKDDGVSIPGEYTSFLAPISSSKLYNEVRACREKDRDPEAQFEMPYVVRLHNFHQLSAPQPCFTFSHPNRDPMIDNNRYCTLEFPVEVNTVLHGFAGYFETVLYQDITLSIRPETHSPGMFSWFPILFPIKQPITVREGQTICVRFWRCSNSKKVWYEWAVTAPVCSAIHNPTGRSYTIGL
T1 sequence (Q9BQA1 whole entry partner): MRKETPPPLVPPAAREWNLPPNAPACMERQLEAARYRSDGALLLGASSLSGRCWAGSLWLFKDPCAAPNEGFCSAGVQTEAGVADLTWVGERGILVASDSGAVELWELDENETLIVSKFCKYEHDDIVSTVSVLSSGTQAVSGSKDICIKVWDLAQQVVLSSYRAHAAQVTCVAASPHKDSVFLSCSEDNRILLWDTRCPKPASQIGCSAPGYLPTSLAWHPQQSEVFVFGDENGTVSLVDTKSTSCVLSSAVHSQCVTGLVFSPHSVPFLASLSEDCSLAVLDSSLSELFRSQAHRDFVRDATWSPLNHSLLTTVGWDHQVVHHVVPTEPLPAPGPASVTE

Compound | pIC50 (PRMT5 [1]) | pIC50 (PRMT5 [2]) | pIC50 (PRMT5 [3]) | pIC50 [4] | pIC50 [5, 6] | MTAP intact/deleted ratio [5, 7] | pIC50 [5, 8] | MTAP intact/deleted ratio [5, 9]
Cc1cc([C@H]2CC[C@H](C)CN2C(=O)C(=O)Nc2cncc(C(N)=O)c2)cc(C)c1O (single isomer, unassigned) [Compound 326] | < 6.30 | < 6.30 | < 6.30 | < 6.00 | < 6.00 | C (an IC50 ratio of less than 3 fold) |  | 
CC(=O)N1CCC(c2cccc([C@@H]3CC[C@@H](C)CN3C(=O)C(=O)Nc3cnc(N)c(C)c3)c2)CC1 (single isomer, unassigned) [Compound 331] | < 6.30 | < 6.30 | < 6.30 | < 6.00 | < 6.00 | C (an IC50 ratio of less than 3 fold) |  | 
CC(=O)N1CCC(c2cccc([C@H]3CC[C@H](C)CN3C(=O)C(=O)Nc3cncc(C(N)=O)c3)c2)CC1 (single isomer, unassigned) [Compound 332] | < 6.30 | < 6.30 | < 6.30 | < 6.00 | < 6.00 | C (an IC50 ratio of less than 3 fold) |  | 
Cc1cc(NC(=O)C(=O)N2CCCC[C@@H]2C2CCCC2)cnc1N (single isomer, unassigned) [Compound 336] | < 6.30 | < 6.30 | < 6.30 | < 6.00 | < 6.00 | C (an IC50 ratio of less than 3 fold) |  | 
Cc1cc(NC(=O)C(=O)N2C[C@H](C)C[C@H](C)[C@H]2c2ccccc2)cnc1N (single isomer, unassigned) [Compound 343] | < 6.30 | < 6.30 | < 6.30 | < 6.00 | < 6.00 | C (an IC50 ratio of less than 3 fold) |  | 
COc1ncc(NC(=O)C(=O)N2C[C@@H](C)CC[C@H]2C2CCCCC2)cc1C(N)=O (single isomer, unassigned) [Compound 371] | < 6.30 | < 6.30 | < 6.30 | < 6.00 | < 6.00 | C (an IC50 ratio of less than 3 fold) |  | 
C[C@@H]1CC[C@@H](c2csc3ccccc23)N(C(=O)C(=O)Nc2cncc(C(N)=O)c2)C1 (single isomer, unassigned) [Compound 463] | > 7.30 | 6.30 to 7.30 | 6.30 to 7.30 | < 6.00 | 6.00 to 7.00 | A (an IC50 ratio greater than or equal to 10 fold) |  | 
C[C@H]1CC[C@H](c2cc(F)c(F)c(Cl)c2)N(C(=O)C(=O)Nc2cncc(C(N)=O)c2)C1 (single isomer, unassigned) [Compound 846] | < 6.30 | < 6.30 | < 6.30 | < 6.00 | < 6.00 | C (an IC50 ratio of less than 3 fold) |  | 
COc1ncc(NC(=O)C(=O)N2C[C@@H](C)C(F)(F)C[C@@H]2c2ccc(F)cc2)cc1C(N)=O (single isomer, unassigned) [Compound 1047] | < 6.30 | < 6.30 | < 6.30 | < 6.00 |  | C (an IC50 ratio of less than 3 fold) | < 6.00 | 
Cc1cc(NC(=O)C(=O)N2C[C@H](C)CC[C@H]2c2cc[nH]n2)cnc1N (single isomer, unassigned) [Compound 1050] | < 6.30 | < 6.30 | < 6.30 | < 6.00 |  | C (an IC50 ratio of less than 3 fold) | < 6.00 | 
COc1ncc(NC(=O)C(=O)N2C[C@H](C)CC[C@H]2c2ccc3nn(C)cc3c2)cc1C(N)=O (single isomer, unassigned) [Compound 1051] | < 6.30 | < 6.30 | < 6.30 | < 6.00 |  | B (an IC50 ratio greater than or equal to 3 fold but lower than 10 fold) | < 6.00 | 
Cc1cc(NC(=O)C(=O)N2C[C@@H](C)CC[C@H]2C23CC(C(N)=O)(C2)C3)cnc1N (single isomer, unassigned) [Compound 1053] | 6.30 to 7.30 | < 6.30 | < 6.30 | < 6.00 |  | A (an IC50 ratio greater than or equal to 10 fold) | 6.00 to 7.00 | 
CCc1cc(NC(=O)C(=O)N2C[C@H](C)CC[C@H]2c2cc3cn[nH]c3s2)cnc1N (single isomer, unassigned) [Compound 1055] | < 6.30 | < 6.30 | < 6.30 | < 6.00 |  | B (an IC50 ratio greater than or equal to 3 fold but lower than 10 fold) | < 6.00 | 
COc1ncc(NC(=O)C(=O)N2C[C@@H](C)CC[C@@H]2c2ccc3nn(C)cc3c2)cc1C(N)=O (single isomer, unassigned) [Compound 1059] | > 7.30 | 6.30 to 7.30 | 6.30 to 7.30 | < 6.00 |  | A (an IC50 ratio greater than or equal to 10 fold) | > 7.00 | 
Cc1cc(NC(=O)C(=O)N2C[C@@H](C)CC[C@@H]2C23CC(C(N)=O)(C2)C3)cnc1N (single isomer, unassigned) [Compound 1061] | < 6.30 | < 6.30 | < 6.30 | < 6.00 | < 6.00 |  |  | B (an IC50 ratio greater than or equal to 3 fold but lower than 10 fold)
COc1ncc(NC(=O)C(=O)N2C[C@H](C)C(F)(F)C[C@H]2c2ccc(F)cc2)cc1C(N)=O (single isomer, unassigned) [Compound 1068] | > 7.30 | 6.30 to 7.30 | 6.30 to 7.30 | < 6.00 | > 7.00 |  |  | A (an IC50 ratio greater than or equal to 10 fold)
Cc1cc(NC(=O)C(=O)N2C[C@H](C)CC[C@H]2C23CC(C(N)=O)(C2)C3)cnc1N (single isomer, unassigned) [Compound 1070] | < 6.30 | < 6.30 | < 6.30 | < 6.00 | < 6.00 |  |  | B (an IC50 ratio greater than or equal to 3 fold but lower than 10 fold)
Cc1cc(NC(=O)C(=O)N2C[C@@H](C)CC[C@@H]2c2cc[nH]n2)cnc1N (single isomer, unassigned) [Compound 1071] | > 7.30 | 6.30 to 7.30 | 6.30 to 7.30 | < 6.00 | < 6.00 |  |  | C (an IC50 ratio of less than 3 fold)
CCc1cc(NC(=O)C(=O)N2C[C@@H](C)CC[C@@H]2c2cc3cn[nH]c3s2)cnc1N (single isomer, unassigned) [Compound 1075] | > 7.30 | 6.30 to 7.30 | > 7.30 | 6.00 to 7.00 | > 7.00 |  |  | A (an IC50 ratio greater than or equal to 10 fold)
COc1ncc(NC(=O)C(=O)N2C[C@@H](C)CC[C@@H]2c2ccc(F)cc2)cc1C(F)F [Compound 1057, N-[5-(Difluoromethyl)-6-methoxy-3-pyridyl]-2-[(2R,5S)-2-(4-fluorophenyl)-5-methyl-1-piperidyl]-2-oxo-acetamide] | 6.30 to 7.30 | < 6.30 | 6.30 to 7.30 | < 6.00 |  | B (an IC50 ratio greater than or equal to 3 fold but lower than 10 fold) | < 6.00 | 
